Assay results taken from patent US10858342B2, “Bicyclic imidazole derivatives useful for the treatment of renal diseases, cardiovascular diseases and fibrotic diseases” (Boehringer Ingelheim International GmbH, priority 2016, dated 2020).
Read-outs that look alike come from different tables or passages of the source.

Legend:
Assay type in all cases: biochemical, cynomolgus monkey
[1] = target: cortisol synthase (CYP11B1) (Macaca fascicularis, UniProt A0A2K5ULY1); assay: Inhibition of cortisol synthesis (cynomolgus adrenal mitochondria, cortisol by mass spectrometry)
Experimental: The aldosterone synthase and cortisol synthase inhibition assays employ cynomolgus adrenal gland mitochondria as the source of aldosterone synthase (CYP11B2) and cortisol synthase (CYP11B1). Mitochondria are prepared from frozen cynomolgus monkey adrenal glands according to Method A described in by J. D. McGarry et al. (Biochem. J., 1983, 214, 21-28), with a final resuspension in the AT buffer described in R. Yamaguchi et al. (Cell Death and Differentiation, 2007, 14, 616-624), frozen as aliquots in liquid nitrogen and stored at −80° C. until use. One unit of CYP11B2 and CYP11B1 activity in these preparations is defined as the amount of enzyme that generates 1 pmol of product in one hour under the conditions described.
(§1) Assays are performed in 96-well format in a final volume of 60 microL/well, containing 100 mM potassium phosphate, pH 7.4, 1% (v/v) DMSO, and additionally, 2 μM of corticosterone and 50 units of CYP11B2 activity. Reactions are started by the addition of NADPH to 1 mM and allowed to proceed for 90 minutes at 37° C. Reactions are terminated by the addition of 60 μL of MeCN containing an internal standard for mass spectrometry. One hundred microliters are then transferred to a glass filter plate and centrifuged at 570×g for 5 minutes and the filtrate is collected. Reaction product aldosterone is quantified by mass spectrometry. To determine the assay blank value (0% activity), NADPH is omitted from some reactions.
Dose dependent inhibition is quantified by the inclusion of compound at various concentrations. Maximum activity (100%) is defined by reactions containing NADPH, but without compound. Activities at each concentration are expressed as a percentage of the maximum activity (y-axis) and plotted against concentration of compound (x-axis) and the concentration corresponding to 50% activity (IC50) determined using the XLFit curve-fitting program using a 4-parameter logistic model.
Assays are performed as for aldosterone synthase except for the use of 150 units of CYP11B1, 11-deoxycortisol as substrate and cortisol measured as product.

[2] = tested on: aldosterone synthase (CYP11B2); assay: Inhibition of aldosterone synthase (cynomolgus adrenal mitochondria, aldosterone by mass spectrometry); details: selectivity for aldosterone synthase inhibition over cortisol synthase (CYP11B1) inhibition, fold
Experimental: (§2) The aldosterone synthase and cortisol synthase inhibition assays employ cynomolgus adrenal gland mitochondria as the source of aldosterone synthase (CYP11B2) and cortisol synthase (CYP11B1). […] One unit of CYP11B2 and CYP11B1 activity in these preparations is defined as the amount of enzyme that generates 1 pmol of product in one hour under the conditions described.
(§3) The compounds of the invention may be evaluated for aldosterone synthase inhibition by the following assay:
as §1
(§4) Dose dependent inhibition is quantified by the inclusion of compound at various concentrations. Maximum activity (100%) is defined by reactions containing NADPH, but without compound.

[3] = target: aldosterone synthase (CYP11B2) (Macaca fascicularis, UniProt A0A2K5UPL9); assay: as above
Experimental: as §2, §3, §1, §4

[4] = 11-deoxycortisol substrate, 150 units CYP11B1; read-out: Cortisol Inhibition IC50
[5] = 2 μM corticosterone substrate, 50 units CYP11B2, 90 min, 37° C., read-out: Aldosterone Inhibition IC50
[6] = read-out: Cortisol Inhibition IC50; 11-deoxycortisol substrate, 150 units CYP11B1

Chain of aldosterone synthase (CYP11B2) (Macaca fascicularis, UniProt A0A2K5UPL9) (A0A2K5UPL9 1-503): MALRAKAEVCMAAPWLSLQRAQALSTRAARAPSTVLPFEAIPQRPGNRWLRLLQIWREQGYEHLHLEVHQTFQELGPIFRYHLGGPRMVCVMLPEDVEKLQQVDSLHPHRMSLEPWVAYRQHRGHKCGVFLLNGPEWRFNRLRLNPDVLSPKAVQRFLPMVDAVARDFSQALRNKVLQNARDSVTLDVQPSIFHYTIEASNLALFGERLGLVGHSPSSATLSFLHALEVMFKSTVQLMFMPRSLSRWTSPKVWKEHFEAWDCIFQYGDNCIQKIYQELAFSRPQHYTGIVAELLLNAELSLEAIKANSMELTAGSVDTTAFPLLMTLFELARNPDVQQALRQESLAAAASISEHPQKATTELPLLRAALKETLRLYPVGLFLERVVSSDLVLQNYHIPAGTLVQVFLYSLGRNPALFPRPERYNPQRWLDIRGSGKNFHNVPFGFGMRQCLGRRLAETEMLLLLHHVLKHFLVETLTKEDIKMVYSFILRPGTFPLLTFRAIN

| Molecule | IC50 [1, 4] [nM] | Selectivity [2] | IC50 [3, 5] [nM] | IC50 [1, 6] [nM] | IC50 [3] [nM] |
| --- | --- | --- | --- | --- | --- |
| 3-(4-Chloroophenyl)-6,6-spirocyclopropyl-3,5,6,7-tetrahydro-benzimidazolo-4-one [C-ACF] | 590 | 57 | 10 | – | – |
| 3-(4-Cyanophenyl)-6,6-(3-tetrahydrofuran)-3,5,6,7-benzimidiazolo-4-one [C-ABA-B] | 850 | 53 | 16 | – | – |
| CCO[C@H]1C[C@H](n2cnc3c2C(=O)CC(C)(C)C3)C12CCC2 (relative stereo) [C-ADM, 3-((1S,3S)-3-Ethoxy-spiro[3.3]hept-1-yl)-6,6-dimethyl-3,5,6,7-tetrahydro-benzoimidazol-4-one] | > 30000 | 420 | 72 | – | – |
| C[C@@H]1Cc2cc(-n3cnc4c3C(=O)CCC4)ccc2O1 (stereo in doubt) [C-AAZ-A, 3-(2-Methyl-2,3-dihydro-benzofuran-5-yl)-3,5,6,7-tetrahydro-benzoimidazol-4-one] | > 30000 | 100 | 300 | – | – |
| C[C@H]1Cc2cc(-n3cnc4c3C(=O)CCC4)ccc2O1 (stereo in doubt) [C-AAZ-B, 3-(2-Methyl-2,3-dihydro-benzofuran-5-yl)-3,5,6,7-tetrahydro-benzoimidazol-4-one] | > 30000 | 430 | 70 | – | – |
| CC(=O)N1CCc2cc(-n3cnc4c3C(=O)CCC4)ccc21 [C-AAA, 3-(1-Acetyl-2,3-dihydro-1H-indol-5-yl)-3,5,6,7-tetrahydro-benzoimidazol-4-one] | > 30000 | 59 | 510 | – | – |
| O=C1CCCc2ncn(-c3ccc4c(c3)COC4)c21 [C-AAB, 3-(1,3-Dihydro-isobenzofuran-5-yl)-3,5,6,7-tetrahydro-benzoimidazol-4-one] | 23000 | 270 | 85 | – | – |
| CN1Cc2cc(-n3cnc4c3C(=O)CCC4)ccc2CC1=O [C-AAC, 2-Methyl-7-(7-oxo-4,5,6,7-tetrahydro-benzoimidazol-1-yl)-1,4-dihydro-2H-isoquinolin-3-one] | > 30000 | 42 | 720 | – | – |
| CN1C(=O)CCc2cc(-n3cnc4c3C(=O)CCC4)cnc21 [C-AAD, 1-Methyl-6-(7-oxo-4,5,6,7-tetrahydro-benzoimidazol-1-yl)-3,4-dihydro-1H-[1,8]naphthyridin-2-one] | > 30000 | 200 | 150 | – | – |
| O=C1CCCc2ncn(-c3ccc4c(c3)CCO4)c21 [C-AAE, 3-(2,3-Dihydro-benzofuran-5-yl)-3,5,6,7-tetrahydro-benzoimidazol-4-one] | 9400 | 890 | 11 | – | – |
| CC(=O)N1CCCc2cc(-n3cnc4c3C(=O)CCC4)ccc21 [C-AAF, 3-(1-Acetyl-1,2,3,4-tetrahydro-quinolin-6-yl)-3,5,6,7-tetrahydro-benzoimidazol-4-one] | 10000 | 270 | 37 | – | – |
| Cn1ncc2cc(-n3cnc4c3C(=O)CCC4)ccc21 [C-AAG, 3-(1-Methyl-1H-indazol-5-yl)-3,5,67,-tetrahydro-benzoimidazol-4-one] | > 30000 | 300 | 100 | – | – |
| Cn1ncc2ccc(-n3cnc4c3C(=O)CCC4)cc21 [C-AAH, 3-(1-Methyl-1H-indazol-6-yl)-3,5,67,-tetrahydro-benzoimidazol-4-one] | > 30000 | 630 | 48 | – | – |
| O=C1CCCc2ncn(-c3ccc4c(c3)OCCO4)c21 [C-AAI, 3-(2,3-Dihydro-benzo[1,4]dioxin-6-yl)-3,5,6,7-tetrahydro-benzoimidazol-4-one] | > 30000 | 180 | 160 | – | – |
| N#Cc1ccc(-n2cnc3c2C(=O)CC2(CCOCC2)C3)cc1Cl [C-AAQ, 3-(3-Chloro-4-cyano-phenyl)-6,6-3-o-tetrahydropyran-3,5,6,7-tetrahydro-benzoimidazol-4-one] | – | – | 44 | 2900 | – |
| CCOC(=O)C1CC(=O)c2c(ncn2-c2ccc(C#N)c(Cl)c2)C1 (stereo not drawn) [C-AAY, 1-(3-Chloro-4-cyano-phenyl)-7-oxo-4,5,6,7-tetrahydro-1H-benzoimidazole-5-carboxylic acid ethyl ester] | – | – | 7.3 | 5100 | – |

| Molecule | IC50 [1, 4] [nM] | Selectivity [2] | IC50 [3, 5] [nM] | IC50 [1, 6] [nM] | IC50 [3] [nM] |
| --- | --- | --- | --- | --- | --- |
| CC(C)Oc1ccc(-n2cnc3c2C(=O)CC(C)(C)C3)cc1 [C-ABQ, 3-(4-Isoporopoxy-phenyl)-6,6-dimethyl-3,5,6,7-tetrahydro-benzoimidazol-4-one] | > 100000 | – | 280 | – | – |
| CC1(C)CC(=O)c2c(ncn2-c2cccc(C#N)c2)C1 [C-ABS, 3-(5,5-Dimethyl-7-oxo-4,5,6,7-tetrahydro-benzoimidazol-1-yl)-benzonitrile] | 10000 | – | 250 | – | – |
| Cc1ccc(-n2cnc3c2C(=O)CC(C)(C)C3)cc1C#N [C-ABY, 5-(5,5-Dimethyl-7-oxo-4,5,6,7-tetrahydro-benzoimidazol-1-yl)-2-methyl-benzonitrile] | 7300 | – | 130 | – | – |
| O=C1CCCc2ncn(-c3ccc(Cl)c(Cl)c3)c21 [C-ACC, 3-(3,4-Dichloro-phenyl)-3,5,6,7-tetrahydro-benzoimidazol-4-one] | 1000 | – | 5.5 | – | – |
| N#C[C@H]1CC[C@H](n2cnc3c2C(=O)CCC3)CC1 [C-ACJ, trans-4-(7-Oxo-5,6-dihydro-4H-benzimidazol-1-yl)cyclohexanecarbonitrile] | 13000 | – | 30 | – | – |
| CC1(C)CC(=O)c2c(ncn2C2CCCCC2)C1 [C-ACK, 3-Cyclohexyl-6,6-dimethyl-3,5,6,7etrahydro-benzoimidazol-4-one] | 6100 | – | 260 | – | – |
| CC1(C)CC(=O)c2c(ncn2C2CCc3cc(Br)ccc3C2)C1 (stereo not drawn) [C-ACM, 3-(6-Bromo-1,2,3,4-tetrahydro-naphthalen-2-yl)-6,6-dimethyl-3,5,6,7-tetrahydro-benzoimidazol-4-on] | > 30000 | – | 53 | – | – |
| CC1(C)CC(=O)c2c(ncn2C2CCC3CCCCC3C2)C1 (stereo not drawn) [C-ACO, 3-(Decahydro-naphthalen-2-yl)-6,6-dimethyl-3,5,6,7-tetrahydro-benzoimdazol-4-one] | 14000 | – | 420 | – | – |
| CC1(C)CC(=O)c2c(ncn2C2CCCc3ccccc32)C1 (stereo not drawn) [C-ACS, 6,6-Dimethyl-3-(1,2,3,4-tetrahydronaphthalen-1-yl)-3,5,6,7-tetrahydro-benzoimidazol-4-one] | – | – | 93 | 26000 | – |
| CC(=O)Nc1ccc(Cn2cnc3c2C(=O)CC(C)(C)C3)cc1 [C-ADE, N-[4-(5,5-Dimethyl-7-oxo-4,5,6,7-tetrahydro-benzoimidazol-1-ylmethyl)-phenyl]-acetamide] | 1900 | – | 58 | – | – |
| CC1(C)CC(=O)c2c(ncn2C2Cc3ccccc3C2)C1 [C-ADG] | 61000 | – | 47 | – | – |
| CC1(C)CC(=O)c2c(ncn2[C@H]2CC[C@@H](C#N)CC2)C1 [C-ADL, 4-(5,5-Dimethyl-7-oxo-4,5,6,7-tetrahydro-benzoimidazol-1-yl)-cyclohexanecarbonitrile] | 7900 | – | 22 | – | – |
| CC1(C)CC(=O)c2c(ncn2Cc2ccc(C(=O)N3CC[C@@H](O)C3)cc2)C1 [C-ADT, 3-[4-((R)-3-Hydroxy-pyrrolidine-1-carbonyl)-benzyl]-6,6-dimethyl-3,5,6,7-tetrahydro-benzoimidazol-4-one] | 29000 | – | 290 | – | – |
| N#Cc1ccc(-n2cnc3c2C(=O)CCC3)nc1 [C-ADW, 6-(7-Oxo-4,5,6,7-tetrahydro-benzoimidazol-1-yl)-nicotinonitrile] | 25000 | – | – | – | 290 |
| N#Cc1ccc(-n2cnc3c2C(=O)CC(CO)C3)cc1Cl (stereo not drawn) [C-AED, 2-Chloro-4-(5-hydroxymethyl-7-oxo-4,5,6,7-tetrahydro-benzoimidazol-1-yl)-benzonitrile] | – | – | 18 | 8600 | – |
| CN(C)C(=O)[C@H]1CC(=O)c2c(ncn2-c2ccc(C#N)c(Cl)c2)C1 [C-AEE, (R)-1-(3-Chloro-4-cyano-phenyl)-7-oxo-4,5,6,7-tetrahydro-1H-benzoimidazole-5-carboxylic acid dimethylamide] | – | – | 190 | > 30000 | – |
